Source: patent US5587479A, “Basic derivatives of glutamic acid and aspartic acid as gastrin or cholecystokinin antagonists” (priority 1992, dated 1996)
Values after ≈ are worked out from the molar mass of the structure shown. Read-outs that look alike come from different tables or passages of the source. Blank lines part the entries; values can stand above or below the compound they belong to.

Experiments:
mouse = assay: Anxiolytic activity in the mouse, Black and White Box test; assay type: in vivo; conditions: for TOTAL MOV.: five minutes; for anxiolytic activity in the Black and White Box test (in words): IP
Method: In order to confirm the hypothesis that the potent activity of some of the compounds of the invention against central CCK-B may be correlated with a possible anxiolytic activity, this potential activity was evaluated in the mouse with the use of the "Black and White Box test". This experimental model, which was carried out according to Costall et al. [Pharm. Biochem. Behav. 32 (1989), 777-785] used a box with dimensions of 45×21×21 (h) cm. divided into two compartments which communicated with each other by means of a 13×5 cm hole. The smaller compartment (1/3 of the total area) had black walls, whereas the larger had transparent walls and was illuminated by a lamp which was placed 20 cm above the box and supplied light at 20 W. Under the floor was an activity meter which registered the movements performed by the animal in the individual compartments. The experiment was started by placing the animal in the centre of the illuminated box; as well at its movements, the time which the animal spent in the dark and in the light and the number of times it moved between the 2 compartments were recorded for five minutes. In general, a control animal tended preferably to stay in the dark compartment where it felt better protected from an unusual enviromental situation which put it in a state of anxiety. In this experimental model ( see the reference cited above), a compound having anxiolytic activity decreased the % of movements into the dark in comparison with the total movements, increased the movements between the two light-dark compartments, and increased the % of the total time time spent in the light. The results obtained are given in Table 5 below in which the activities obtained with the compound 1 (the rectus series ) and its enantiomer 2 (sinister) tested in comparison with diazepam and the CCK-B antagonist L365-260.

[1] = biological target: T1, central CCK-B receptors (guinea pig cortical membrane) (Cavia porcellus, UniProt H0VZC5); assay: Inhibition of binding of (3-H)[N-methyl-N-leucine]CCK-8 to guinea pig cortical membranes (anti-CCK-B)
T1 construct: Cerebral cortices of white male guinea pigs were therefore used; from tissue; host or cells: guinea pig cerebral cortex membranes
T1 sequence (H0VZC5 1-426): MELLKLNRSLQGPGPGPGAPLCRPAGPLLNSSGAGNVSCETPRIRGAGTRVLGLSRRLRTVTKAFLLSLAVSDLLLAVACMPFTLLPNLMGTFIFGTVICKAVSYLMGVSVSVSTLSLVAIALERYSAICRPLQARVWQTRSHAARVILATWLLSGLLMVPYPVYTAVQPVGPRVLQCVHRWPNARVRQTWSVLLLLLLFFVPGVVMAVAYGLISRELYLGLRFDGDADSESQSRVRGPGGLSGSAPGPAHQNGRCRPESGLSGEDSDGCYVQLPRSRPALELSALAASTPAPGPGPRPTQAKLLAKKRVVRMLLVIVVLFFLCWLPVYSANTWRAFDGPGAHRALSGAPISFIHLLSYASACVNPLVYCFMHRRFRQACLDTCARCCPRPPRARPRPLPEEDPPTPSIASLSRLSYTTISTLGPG
Method: Cerebral cortices of white male guinea pigs were therefore used, according to the method mentioned above, so as to obtain a membrane content/ml corresponding to about 300 mcg of proteins/mi. The membranes were incubated together with the radioactive tracer and the compounds under test for 150 minutes at 25° C. After the supernatant liquid had been discarded, the radioactivity associated with the pellet was determined with a liquid scintillator.

[2] = test system: acid secretion induced by pentagastrin; assay: Activity against gastric secretion stimulated with pentagastrin in the anaesthetized rat; assay type: in vivo; conditions: for ED50: iv, anaesthetized rat, pentagastrin 30 mcg/kg/h, I.V. bolus, read-out: Antagonistic activity (ID50) towards acid secretion induced by pentagastrin
Method: The investigation of the activity against gastric secretion performed by the compounds of the invention by means of an antigastrin mechanism was carried out in vivo in anaesthetized rats with the use of male animals weighing about 200 g. Gastric secretion was stimulated with pentagastrin and the method of K. S. Lai [Gut 5, (1964), 327-341] was used, slightly modified.
After tracheotomy, the oesophagus and duodenum were cannulated. Perfusion was carried out with a tepid solution (37° C.) of 0.25 mM NaOH which was passed through the stomach by means of a peristaltic pump at a constant flow rate of 1 ml/minute. After stabilization for 20 minutes, the stimulant, dissolved in a physiological solution, was perfused for 120 minutes at a dose of 30 mcg/kg/h in a volume of 0.95 ml/hour. After perfusion for 60 minutes (the basal simulation), the product under test was administered intravenously (I.V.) as a bolus and the perfusion of the stimulant was continued for a further 60 minutes. The acid secretion was recorded continuously as a function of time.
The activity of the product was evaluated as the percentage reduction in the secreted acidity after the administration of the product compared with the basal acidity measured during the first 60 minutes of collection in the presence of pentagastrin alone.

guinea-pig ureters = assay: Antispastic activity in vitro: spontaneous motility of guinea-pig ureters; conditions: Cavia porcellus, five minutes contact, 37° C.
Description: The isotonic contractions were detected by means of a force transducer and recorded. […] A given concentration of the product under test was then introduced into the bath and left in contact with the prepared specimen for five minutes, after which the ureter was washed until its own spontaneous activity was re-established.

[3] = biological target: T2, cholecystokinin receptors of the pancreatic cells of the rat (CCK-A) (Rattus norvegicus, UniProt P30551); assay: Inhibition of the binding of [125-I]-[Bolton-Hunter]-CCK-8 to rat pancreatic cells (anti-CCK-A); conditions: for IC50: 30 minutes at 37° C., read-out: IC50, inhibition of the binding of (125-I)(B-H)-CCK-8 to the pancreatic cells of the rat
T2 construct: The pancreatic cells of the rat were prepared as described by Makovec et al; from tissue; host or cells: rat pancreatic cells
T2 sequence (P30551 1-444): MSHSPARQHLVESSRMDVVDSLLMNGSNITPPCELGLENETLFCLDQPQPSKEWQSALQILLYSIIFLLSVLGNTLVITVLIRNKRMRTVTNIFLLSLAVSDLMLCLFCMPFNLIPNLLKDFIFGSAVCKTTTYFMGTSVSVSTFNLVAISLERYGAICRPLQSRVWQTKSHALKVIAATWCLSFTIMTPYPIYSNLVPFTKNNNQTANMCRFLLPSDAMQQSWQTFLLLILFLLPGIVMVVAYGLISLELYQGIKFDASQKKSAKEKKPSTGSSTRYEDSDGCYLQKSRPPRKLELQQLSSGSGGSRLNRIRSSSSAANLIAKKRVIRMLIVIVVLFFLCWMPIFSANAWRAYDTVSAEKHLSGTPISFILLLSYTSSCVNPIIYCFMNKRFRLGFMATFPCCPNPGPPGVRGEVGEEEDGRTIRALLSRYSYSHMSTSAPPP
Method: The pancreatic cells of the rat were prepared as described by Makovec et al. (reference cited) so as to produce about 5×10^6 cells/mi. The cells were then incubated together with the radioactive tracer and the compounds under test for 30 minutes at 37° C.
After the supernatant liquid had been discarded, the radioactivity associated with the pellet was determined with a gamma counter (80% efficiency).

[4] = IC50, inhibition of binding of (3-H)[N-methyl-N-leucine]CCK-8 to the guinea pig cortical membrane, 150 minutes at 25° C.
[5] = force of the contractions, read-out: IC50 (force), inhibition of the spontaneous motility of guinea-pig ureters in vitro
[6] = frequency of the contractions, read-out: IC50 (frequency), inhibition of the spontaneous motility of guinea-pig ureters in vitro

Compound: CN1CCN(C(=O)CC[C@@H](NC(=O)c2cccc(Cl)c2)C(=O)NCCC(C)(C)C)CC1 [Compound 23]
IC50 [1, 4]: > 100 µM | ED50 [2]: 25 mg/kg

Compound: CCCCCN(CCCCC)C(=O)[C@@H](CCC(=O)NCCN1CCOCC1)NC(=O)c1ccc2ccccc2c1 [Compound 61]
IC50 [1, 4]: 2.9 µM | IC50 [3]: 2.8 µM | IC50 (guinea-pig ureters; [5]): 32 µg/mL (≈ 57.9 µM) | IC50 (guinea-pig ureters; [6]): 100 µg/mL (≈ 181 µM)

Compound: CCCCCN(CCCCC)C(=O)[C@@H](CCC(=O)NCCN1CCOCC1)NC(=O)c1cnc2ccccc2c1 [Compound 59]
IC50 [3]: 1.2 µM

Compound: CCC(C)(CC)CCNC(=O)C(CC(=O)NCCN1CCOCC1)NC(=O)c1cccc(Cl)c1 (stereo not drawn) [Compound 68]
ED50 [2]: 31 mg/kg

Compound: CCCCCN(CCCCC)C(=O)C(CCC(=O)O)NC(=O)c1ccc(Cl)c(Cl)c1 (stereo not drawn) [lorglumide, reference compound]
antigastrin activity (in words) ([2]; rat, up to a dose of 100 mg/kg): completely inactive

More lines, main results first:

IC50 [1, 4]: > 100 µM | IC50 ([1]; read-out: IC50, binding to guinea-pig cortical membranes): > 1 µM | IC50 (guinea-pig ureters; [5]): 25 µg/mL (≈ 47.8 µM) | IC50 (guinea-pig ureters; [6]): 20 µg/mL (≈ 38.2 µM)
Compound: CN1CCN(C(=O)CC[C@H](NC(=O)c2cc(Cl)cc(Cl)c2)C(=O)N2CCC3(CCCC3)CC2)CC1 [Compound 2]
LIGHT TIME (%) TOTAL TIME (mouse; 0.1 mg/kg IP): 28.3% | LIGHT TIME (%) TOTAL TIME: % EFF.VS CONTROL (mouse; 0.1 mg/kg IP): 0% | LIGHT-DARK MOVEMENTS (mouse; 0.1 mg/kg IP): 13.2 | LIGHT-DARK MOVEMENTS: % EFF. VS CONTROL (mouse; 0.1 mg/kg IP): 0% | MOV. DARK (%) TOTAL MOV. (mouse; 0.1 mg/kg IP): 50% | MOV. DARK (%) TOTAL MOV.: % EFF. VS CONTROL (mouse; 0.1 mg/kg IP): -4% | TOTAL MOV. (mouse; 0.1 mg/kg IP): 477 | LIGHT TIME (%) TOTAL TIME (mouse; 1 mg/kg IP): 27.5% | LIGHT TIME (%) TOTAL TIME: % EFF.VS CONTROL (mouse; 1 mg/kg IP): 0% | LIGHT-DARK MOVEMENTS (mouse; 1 mg/kg IP): 12.8 | LIGHT-DARK MOVEMENTS: % EFF. VS CONTROL (mouse; 1 mg/kg IP): 0% | MOV. DARK (%) TOTAL MOV. (mouse; 1 mg/kg IP): 50% | MOV. DARK (%) TOTAL MOV.: % EFF. VS CONTROL (mouse; 1 mg/kg IP): -4% | TOTAL MOV. (mouse; 1 mg/kg IP): 462 | anxiolytic activity in the Black and White Box test (in words) (mouse): completely inactive | ED50 [2]: 24.8 mg/kg

IC50 [1, 4]: 0.7 µM | times less active than pentagastrin (CCK-B binding) ([1]; guinea-pig cortical membranes): about 200 times | times more potent than the CCK-A antagonist R-lorglumide (CCK-B binding) ([1]; guinea-pig cortical membranes): about 10 times | times more potent than the gastrin antagonist CR 2194 (CCK-B binding) ([1]; guinea-pig cortical membranes): about 3 times | activity relative to its acidic parent compound CR 2194 (CCK-A binding) ([3]; rat pancreatic cells): about twice | IC50 (guinea-pig ureters; [5]): 23 µg/mL (≈ 43.9 µM) | IC50 (guinea-pig ureters; [6]): 29 µg/mL (≈ 55.4 µM)
Compound: CN1CCN(C(=O)CC[C@@H](NC(=O)c2cc(Cl)cc(Cl)c2)C(=O)N2CCC3(CCCC3)CC2)CC1 [Compound 1]
LIGHT TIME (%) TOTAL TIME (mouse; 0.01 mg/kg IP): 32.3% | LIGHT TIME (%) TOTAL TIME: % EFF.VS CONTROL (mouse; 0.01 mg/kg IP): 17% | LIGHT-DARK MOVEMENTS (mouse; 0.01 mg/kg IP): 13.2 | LIGHT-DARK MOVEMENTS: % EFF. VS CONTROL (mouse; 0.01 mg/kg IP): 3% | MOV. DARK (%) TOTAL MOV. (mouse; 0.01 mg/kg IP): 50% | MOV. DARK (%) TOTAL MOV.: % EFF. VS CONTROL (mouse; 0.01 mg/kg IP): 0% | TOTAL MOV. (mouse; 0.01 mg/kg IP): 478 | LIGHT TIME (%) TOTAL TIME (mouse; 0.1 mg/kg IP): 35.4% | LIGHT TIME (%) TOTAL TIME: % EFF.VS CONTROL (mouse; 0.1 mg/kg IP): 28% | LIGHT-DARK MOVEMENTS (mouse; 0.1 mg/kg IP): 15.0 | LIGHT-DARK MOVEMENTS: % EFF. VS CONTROL (mouse; 0.1 mg/kg IP): 17% | MOV. DARK (%) TOTAL MOV. (mouse; 0.1 mg/kg IP): 47% | MOV. DARK (%) TOTAL MOV.: % EFF. VS CONTROL (mouse; 0.1 mg/kg IP): -5% | TOTAL MOV. (mouse; 0.1 mg/kg IP): 461 | LIGHT TIME (%) TOTAL TIME (mouse; 1 mg/kg IP): 30.5% | LIGHT TIME (%) TOTAL TIME: % EFF.VS CONTROL (mouse; 1 mg/kg IP): 10% | LIGHT-DARK MOVEMENTS (mouse; 1 mg/kg IP): 12.9 | LIGHT-DARK MOVEMENTS: % EFF. VS CONTROL (mouse; 1 mg/kg IP): 0% | MOV. DARK (%) TOTAL MOV. (mouse; 1 mg/kg IP): 45% | MOV. DARK (%) TOTAL MOV.: % EFF. VS CONTROL (mouse; 1 mg/kg IP): -9% | TOTAL MOV. (mouse; 1 mg/kg IP): 471 | anxiolytic activity in the Black and White Box test (in words) (mouse): active for all the parameters tested | dose at which the compound is most active (mouse; bell-shaped curve): 0.1 mg/kg (I.P.) | ED50 [2]: 9 mg/kg | activity times higher than that of its S enantiomer, compound 2 ([2]; rat, pentagastrin-induced acid secretion): about three | times more active than CR 2194, calculated on a molar basis ([2]; rat, pentagastrin-induced acid secretion, molar basis): about 1.5 times | times more active than CR 2194 ([2]; rat, pentagastrin-induced acid secretion, weight basis): about 1.2 times
